The test system of one data set is C. trachomatis. Put plainly: Chlamydia trachomatis growth inhibition assay in HEp-2 host cells. It is filed as cell-based. The following applies: for statistical significance of anti-chlamydial activity: relative to solvent controls. As to the method:
The workflow for the evaluation of chlamydial growth inhibition is described in the supplementary information (Figure S6). Briefly, HEp-2 cells were seeded in a 96-well plate and grown for 24 h; they were then infected with a fixed quantity of C. trachomatis. The infection was propagated for 4 h, and then a mixture of test compound and cycloheximide was added and the plate was incubated for a further 26 h (30 h post infection). The cells were fixed with methanol and then stained with fluorescent antibodies to visualize chlamydial inclusions, and the growth was measured using inclusion counts relative to vehicle controls.
HEp-2 cells were grown until confluent in a T-75 flask with DMEM (containing 10% FCS, gentamycin (0.05 mg/mL), streptomycin (0.1 mg/mL) and glutamine (Sigma-Aldrich Cat No. G7513, 4 mM); they were then harvested with trypsin, and the cell density was determined with a haemocytometer. Cells were diluted to 1 × 10^5 cells/mL, and 200 µL was dispensed to each well in a 96-well plate and then incubated for 24 h at 5% CO2 at 37 °C.
The supernatant was removed, and 100 µL of the respective chlamydia species in media (100,000 IFU/mL) was added, giving an MOI of 0.5. The plate was sealed and centrifuged at 500× g/28 °C for 30 min and then incubated for a further 3.5 h at 37 °C with 5% CO2. The supernatant was removed, and 100 µL of cycloheximide in DMEM (1 µg/mL) was added in addition to 100 µL of drug stock solution to each respective well with DMSO and media negative controls and also azithromycin positive control. The plate was incubated for a further 26 h.
The supernatant was removed, and wells were washed with PBS (2 × 150 µL) and then fixed in methanol for eight minutes. The methanol was removed and washed with additional PBS (2 × 150 µL) and stored at 4 °C with 100 µL PBS per well and then stained and analyzed using fluorescence microscopy, which is outlined below.
Cells in fixed plates were permeabilized with 0.5% Triton X-100 in PBS for 15 min and then blocked with 1% BSA in PBS for 45 min. Anti-HtrA polyclonal antibody (sera) (1:600) (in-house), anti-mouse tubulin (Sigma-Aldrich Cat no. T-5168, 1:3000) and DAPI (125 ng/mL) in PBS were added to each well (70 µL) and then gently shaken at room temperature while shielding it from light for 45 min. The primary antibodies were removed, and the wells were washed with PBS (4 × 150 µL). Secondary antibodies (goat anti-rabbit Alexafluor 488, Thermo Fisher Cat No. A-11008 and goat anti-mouse Alexafluor 568 (Thermo Fisher Cat No. A-11004)) in PBS (70 µL, 1:600 respectively) were added and the wells were gently shaken at room temperature while shielding them from light for 45 min. The antibodies were removed, and the wells were washed with PBS (5 × 150 µL); cells were then stored with PBS (100 µL per well) at 4 °C pending analysis.
Plates were analyzed on an INcell Analyzer 2200 (Cytiva Life Sciences, Marlborough, MA, USA) using both laser autofocus (10%) and software autofocus modes, with ten random images per well covering a minimum of 80% of the well at 10x magnification. Non-morphologically affected inclusions were counted using a macro in ImageJ (v1.54f), and MIC was defined as being one two-fold dilution more concentrated than MICTP (where MICTP is defined as the lowest concentration to produce ≥90% morphologically abnormal inclusions) relative to solvent controls.

The next data set deals with HEp-2 cells. Description: MTS cell viability assay, HEp-2 cells. It is filed as cell-based, human. To be noted: 24 h; for effect on HEp-2 cell viability: any tested concentration (31.25, 62.5, 125 µM). As to the method: The cytotoxic effects of the 4-chloroisocoumarin compounds 2a–g and 6a–h (24 h) were tested against HEp-2 and McCoy B cells using the MTS cell viability assay. HEp-2 and McCoy B cells were selected, as these are routinely used for the cultivation of chlamydial species, and low cytotoxicity against host cells is required to evaluate the anti-chlamydial properties of a test compound [27].
HEp-2 (human epithelial type 2, CCL-23, ATCC®, Virginia, USA) or McCoy B (mouse fibroblast, CRL-1696, ATCC®) cells were grown to 80–100% confluence, and cell density was determined with a haemocytometer. Cells were then diluted to 1 × 10^5 cells/mL, and 100 µL was added to each well in a 96-well plate, with 3 wells left as controls. Cells were grown for 24 h, and the media was removed and then replaced with fresh media containing 0.1% DMSO and the drug for testing in triplicate. Drugs and cells were incubated for 24 h, and then 20 µL of MTS and PMS solution was added and then incubated for a further four hours. Absorbance was measured at 490 nm on a TECAN M200 Infinite plate reader and data were processed using Microsoft Excel^TM with the following equation to determine cell viability relative to DMSO controls. Cellviability%=AbsorbanceDrug−AbsorbanceDye/AbsorbanceDMSO−AbsorbanceDye
Background: Tetrazolium assays rely on reduction of a dye to a coloured formazan, in cell work by metabolically active cells.

Setting [1] is: 62.5 µM, 30 h post infection, HEp-2 host cells.

In brackets after ≈: the same amount, converted by molar mass.

What is called inhibition is the change of the read-out against control, counted positive when it falls.

Regarding `CCC(C)Oc1oc(=O)c2ccccc2c1Cl` (racemic) [Compound 2g, (±)-3-sec-Butoxy-4-chloroisocoumarin], the “reduction of chlamydial growth” value with C. trachomatis (setting [1]) came to 49%.
On to `CCC(C)Oc1oc(=O)c2cc(N)ccc2c1Cl` (racemic) [Compound 6a, (±)-7-Amino-4-chloro-3-sec-butoxyisocoumarin], for which, in the data set with C. trachomatis (setting [1]), the chlamydial inclusions affected is at least 90%. Further, in the data set with C. trachomatis (62.5 µM), the “statistical significance of anti-chlamydial activity” value (shortened to “statistical significance”) is “statistically significant anti-chlamydial activity”. Besides, the “inhibition of C. trachomatis growth versus 90% threshold” value in the data set with C. trachomatis (any concentration tested, 30 h post infection, dose-response) is “did not consistently show inhibition greater than the 90% threshold”. The “effect on HEp-2 cell viability / cytotoxicity” value in the data set on HEp-2 cells (125 µM) is “reduced cell viability slightly”.
For `CCC(C)Oc1oc(=O)c2cc(N(C)C)ccc2c1Cl` (racemic) [Compound 6b, (±)-7-(Dimethylamino)-3-sec-butoxy-4-chloroisocoumarin], the chlamydial inclusions affected with C. trachomatis (setting [1]) is reported as at least 90%. The “statistical significance” value with C. trachomatis (62.5 µM) is “statistically significant anti-chlamydial activity”. In addition, the inhibition at 31.25 µM in the data set on C. trachomatis (Chlamydia trachomatis, HEp-2, concentrations ≥ 31.25 µM, 30 h post infection, dose-response) was over 90%. The MIC in the data set with C. trachomatis (Chlamydia trachomatis, MIC defined as twice the MICTP (>90% altered chlamydial morphology), read-out: MIC (minimum inhibitory concentration) against C. trachomatis) is 62.5 µM (≈ 18.5 µg/mL). The “effect on HEp-2 cell viability” value with HEp-2 cells is “not found to significantly impact cytotoxicity”.
`CCC(C)Oc1oc(=O)c2cc(NC(C)=O)ccc2c1Cl` (racemic) [Compound 6c, (±)-N-(4-Chloro-1-oxo-3-sec-butoxy-isochromen-7-yl)acetamide]: the “anti-chlamydial activity against C. trachomatis” value with C. trachomatis (setting [1]) was “did not significantly affect the efficacy of 2g”. Further, the “effect on HEp-2 cell viability” value in the data set on HEp-2 cells is “did not significantly affect cell viability”.
With `CCC(C)Oc1oc(=O)c2cc(NC(=O)C(F)(F)F)ccc2c1Cl` (racemic) [Compound 6d, (±)-N-(4-chloro-1-oxo-3-sec-butoxy-isochromen-7-yl)-2,2,2-trifluoroacetamide], in the data set with C. trachomatis (setting [1]), the “anti-chlamydial activity against C. trachomatis” value is “comparable efficacy to the methoxy (6h) analogue”. In addition, the “statistical significance” value in the data set with C. trachomatis (62.5 µM) is “statistically significant anti-chlamydial activity”. Further, the “effect on HEp-2 cell viability” value with HEp-2 cells is reported as “did not significantly affect cell viability”.
Take `CCC(C)Oc1oc(=O)c2cc(I)ccc2c1Cl` (racemic) [Compound 6e, (±)-3-sec-Butoxy-4-chloro-7-iodoisocoumarin]: the “anti-chlamydial activity against C. trachomatis” value in the data set with C. trachomatis (setting [1]) is “did not significantly affect the efficacy of 2g”. Besides, the “statistical significance” value in the data set with C. trachomatis (62.5 µM) was “statistically significant anti-chlamydial activity”. Moreover, the “cytotoxicity against HEp-2 cells” value in the data set with HEp-2 cells (62.5 µM) is reported as “retained some cytotoxicity”.
As for `CCC(C)Oc1oc(=O)c2cc(OC)ccc2c1Cl` (racemic) [Compound 6h, (±)-7-Methoxy-3-sec-butoxy-4-chloroisocoumarin], the “statistical significance” value in the data set with C. trachomatis (62.5 µM) is on record as “statistically significant anti-chlamydial activity”. Moreover, the “effect on HEp-2 cell viability” value with HEp-2 cells is reported as “did not significantly affect cell viability”.

These data come from paper PMC11013143, “4-Chloroisocoumarins as Chlamydial Protease Inhibitors and Anti-Chlamydial Agents” (Molecules, 2024).
